The results in this text go back to patent publication US10668032B2 (SyneuRx International (Taiwan) Corp., priority 2016, dated 2020).

Molecules are shown by their SMILES.

For one data set, the system named is primary cortical cells. Briefly: Oxygen-glucose deprivation (OGD) of primary cortical culture, MTT assay. Format: cell-based, rat. An excerpt: The oxygen-glucose deprivation (OGD) is a common and well-validated cell model used for brain injuries like stroke-related studies. […] To induce the OGD model, the Neurobasal medium supplemented with B27 (GIBCO/Life Technologies of Thermo Fisher Scientific Corporation) was removed from the cultures, and then rinsed with Neurobasal-A Medium (no D-glucose and sodium pyruvate [GIBCO/Life Technologies of Thermo Fisher Scientific Corporation]). The cultured cells were maintained in a humidified incubator at 37° C. with 5% CO2 for 1 h to consume the resting glucose and pyruvate. The cultures were then subjected to an anaerobic environment of 95% N2-5% CO2 for 4 hours. Oxygen concentration was monitored by an oxygen analyzer (Proox-110, Demott St, Lacona, N.Y., USA), as maintained at approximately 1.0% throughout the experiment.
A general note: Formazan colour is commonly taken as a measure of viable cells.

Data set [1] in a line: Plasma pharmacokinetics of benzoic acid after oral gavage. Format: in vivo, Sprague-Dawley rats. Particulars: rat, single oral gavage. As for the experimental part:
The plasma concentration of benzoic acid was determined by LC/MS/MS. The chromatographic separation was carried out on a ODS 5 um column (4.6×150 mm, Biosil). The mobile phase consisted of a mixture of 1% mobile phase A and 99% mobile phase B. […] The injection volume was 50 μL and the column temperature was 23° C. All solvents were HPLC grade quality. Plots of plasma concentration of benzoic acid versus time are constructed. The fundamental pharmacokinetic parameters were obtained from non-compartmental analysis (NCA) of the plasma data using WinNonlin.

The next data set has as its system primary cortical neurons. Put plainly: 3-NP induced toxicity in primary cortical culture (Hoechst staining, MAP-2 immunocytochemistry). Format: cell-based, rat. How it is done: Primary cortical cultures were prepared from embryonic day 18 (E18) fetal Sprague Dawley (SD) rat brains. The cells were maintained in Neurobasal medium supplemented with B27 (GIBCO/Life Technologies of Thermo Fisher Scientific Corporation) at 37° C. for 7 days to allow growth of dendrites before experimentation.
3-NP (Cat. No. 73803, Sigma, St. Louis, Mo., USA) was dissolved in phosphate-buffered saline (PBS) as a stock solution of 1 M and adjusted to pH 7.4 with 10 M sodium hydroxide. The 3-NP stock solution was then dispensed into 1-ml aliquots, protected from light, and stored at −20° C. until use.
Hoechst staining is used to assess the extent of the cell survival. Cells were fixed in 4% paraformaldehyde (PFA) in phosphate-buffered saline (PBS), incubated with the Hoechst 33342 diluted in PBS (1:1000) for 5-15 minutes. The Hoechst staining is used to assess the extent of the cell survival after the exposure to 2.5 mM 3-NP for 24 hours.
Cells were fixed in 4% PFA and washed in PBS, blocked with 2% bovine serum albumin (BSA) and treated by 0.03% Triton X-100 in PBS, before being incubated with mouse monoclonal antibody against microtubule-associated protein-2 (MAP-2) in 1:150 dilution (Cat. No. MAB378, CHEMICON International, Inc., Temecula, Calif., USA). The goat anti-mouse IgG Alexa fluor-conjugated secondary antibodies (Cat No. A11003, Thermo Scientific) in 1:500 dilution were applied to recognize the primary antibodies of the MAP-2. For confocal microscopy, the coverslips were observed under a laser-scanning confocal microscope (Zeiss LSM700; Oberkochen, Germany) equipped with filter sets to detect the corresponding fluorescent signals.
The cells were then exposed to 2.5 mM 3-NP for 24 hours.
Quantitative analysis was also performed to assess the extents of cell death. At least three vision fields were randomly selected and the averaged numbers of dead cells and all nuclei per vision field on each coverslip were calculated.

For data set [2], the system named is MPTP-induced C57BL/6J mice. Put plainly: Pole test in MPTP-induced mice. The settings on record: 256 mg/kg body weight/day after 5 weeks of MPTP 30 mg/kg/day i.p. Format: in vivo, mouse. How it is done: Animals were housed and kept in the same condition as previous described. Male C57BL/6J mice (age: 12 weeks) were randomly assigned to 2 groups—vehicle control and MPTP-induced groups. The mice of MPTP-induced group were intraperitoneally injected with MPTP (30 mg/kg body weight/day) for five weeks, while those in the vehicle control group received injections of the same volume of saline. After 5 weeks of MPTP exposure, pole test was performed to elucidate the effect of MPTP-induced disability.
Pole test was used to measure the degree of bradykinesia, a typical symptom of parkinsonism. The animals were positioned head upward near the top of a rough-surfaced pole (1 cm in diameter and 60 cm in height). The time taken until they turned downward (Tturn) and the total time taken to climb down to the floor (TLA), were recorded. When the mouse was not able to turn downward, Tturn was taken as 60 seconds (default value).

The subject of data set [3] is primary cortical neuronal culture. Put plainly: Detection of cellular reactive oxygen species (CellROX) after 3-NP in primary cortical culture. Format: cell-based, rat. As for the experimental part:
Reactive oxygen species (ROS) are detected on primary cortical neuronal culture by CellROX Oxidative Reagents (catalog number 10444, Life Technologies Corp. USA). […] The cells were then exposed to 2.5 mM 3-NP for 24 hours. Subsequently, […] CellROX Reagent was added, and then incubated for […]. CellROX Green Reagent is a DNA dye, and upon oxidation, it binds to DNA; thus, its signal is localized in the nucleus and mitochondria. ROS were quantified by fluorescence intensity. The samples were observed under a laser scanning confocal microscope Zeiss LSM700 (Zeiss, Germany) equipped with filter sets to detect fluorescent signal.

[4] abbreviates: NaBen 287.9 mg/kg + Li2CO3 74.2 mg/kg or LiBen 255.3 mg/kg.

Consider `O=C([O-])c1ccccc1.[Li+]` [lithium benzoate], for which the “cell survival under oxygen-glucose deprivation” value in the data set with primary cortical cells (overall treatment 53 hours (pre-treatment 24 h, habituation 1 h, OGD 4 h, reperfusion 24 h), 0.3, 1, 3, 5 mM) was “significantly protected”. For the same compound, the “cell survival under oxygen-glucose deprivation” value in the data set on primary cortical cells (post-treatment for 48 hours reperfusion) was “cell protection effect at all dose levels”. Also, in data set [1] (setting [4]), the “AUC Extr of benzoic acid” value came out at 2.63%, the “AUCInf of benzoic acid” value is 62,874 hr * ng/mL, the “AUClast of benzoic acid” value is 62,059 hr * ng/mL and the “Cmax of benzoic acid” value was 109,321 ng/mL. The “MRT of benzoic acid” value in data set [1] (setting [4]) is 45 min. For the same compound, the “Tmax of benzoic acid” value in data set [1] (NaBen 287.9 mg/kg + Li2CO3 74.2 mg/kg or LiBen 255.3 mg/kg (same molarity)) amounted to 11.4 min. Further, in the data set on primary cortical neurons (cortical culture treated only with lithium benzoate, not 3-NP), the “cell survival, drug only” value is on record as “No difference”. Also, the “cell survival (protection from 3-NP induced neuron death)” value in the data set with primary cortical neurons (lithium benzoate 1 mM or 3 mM pre-treatment 24 h, then 2.5 mM 3-NP 24 h) is “significantly protected”. In addition, the “MAP-2 immunocytochemistry, confocal microscopy” value in the data set with primary cortical neurons (lithium benzoate 1 or 3 mM, 3-NP exposure) was “neuronal protection”. In data set [2], the “total time for turning down (TLA), pole test” value is reported as “significantly reduced” and the “turning time (Tturn), pole test” value was “significantly reduced”. In addition, in data set [3] (0.5 mM each), the “ROS reduction effect compared with sodium benzoate and lithium chloride” value is on record as “much more significant”. In addition, the “ROS production induced by 3-NP” value in data set [3] (0.5 mM, incubated 24 hours before 3-NP) was “back to the basal level”. Besides, the “ROS production induced by 3-NP” value in data set [3] (lithium benzoate 0.5, 1 or 3 mM 24 h, then 2.5 mM 3-NP 24 h) is reported as “significantly reduced”.
